Data on three molecules can be found in patent publication US9581587B2, “Sperm staining and sorting methods” (INGURAN, LLC, priority 2011, dated 2017).

For data set [1], the system named is sperm. The experiment in a line: Post thaw motility Elk (Example 3). The settings on record: post thaw 0 HR; RED TALP with 16 μL Hoechst 33342, Y6 with 14 μL. Type of data set: cell-based. Here is the method:
(§1) Each of deer and elk were collected in the Tris-egg yolk catch fluid described as a catch media in Example 1, and shipped for sorting.
(§2) A portion of each of the deer and the elk were stained by the red food dye No. 40 treatment 40% with 16 μL Hoechst 33342 and the yellow food dye No. 6 treatment with 14 μL Hoechst 33342 as described in Example 1.
(§3) Samples were each bulk sorted with the same machine and parameters described in Example 1. Both sorted X and sorted Y sperm were collected into a single catch. The sorted samples were then frozen like those described in Example 1.
(§4) Frozen thawed samples were then tested for post thaw motilities and post thaw DNA fragmentation. Post thaw motilities were slightly higher in Elk sorted with a yellow quencher, while a more significant difference existed in progressive motility. In Table 10, post thaw DNA fragmentation in Elk can be seen at about double after 48 hours when red food dye No. 40 is compared to yellow food dye No. 6 as a dead quencher.

For data set [2], the system named is sperm. The experiment in a line: Post thaw DNA fragmentation Elk (Example 3). Format: cell-based. As to the method: as §1, §2, §3, §4
Data set [3] relates to sperm. The experiment in a line: Post thaw motility of sorted sperm on CASA (Example 4). Type of data set: cell-based, canine. The settings on record: for Motile / Progressive: average, 0 Hr post thaw. Here is the method: Sperm was collected from a single canine at room temperature into CaniPro Chill 5, available from Minitube, WI, USA, then centrifuged into a pellet and resuspended in a Tris buffer at a pH of 6.8.
Samples were extended to 40×10^6 sperm/ml in 1 ml volumes with the Tris buffer described in Example 1 but set to a pH of 7.2. Ten samples were then stained 4, 4, 5, 5, 7, 8, 8, 9, 9, and 10 μL of Hoechst 33342 and quenched with one of two quenching dyes at a concentration of 50 μM in a second buffer Tris buffer.
Red food dye No. 40 quencher—1 ml Tris at a pH 6.3 was added with red food dye No. 40 into samples stained with 4, 5, 8, 9, 10 μL Hoechst 33342. The red food dye No. 40 was added at a concentration of about 50 μM.
Yellow food dye No. 6 quencher—1 ml Tris at a pH 6.3 was added with yellow food dye No. 6 into samples stained with 4, 5, 7, 8, 9 μL Hoechst 33342. The yellow food dye No. 6 was added at the same concentration as the red food dye No. 40 quencher, at about 50 μM.
5 million cells were sex sorted with a MoFlo SX XPD into 50 mL Falcon tubes having 3.5 mL of a Tris-egg yolk catch fluid, described in Example 1 for both X and Y populations. Two samples were sorted, the red food dye No. 40 quenched treatment with 9 μL Hoechst 33342 and the yellow food dye […] quenched treatment with 7 μL Hoechst 33342.
Straws were then frozen and stored in liquid nitrogen.
Straws were thawed for 30 sec in a 38° C. water bath and their motilities were examined on CASA.
Table 12 illustrates the average motilities and progressive motilities for the sorted treatments. Canine sperm quenched with yellow food dye No. 6 provided about 4.5% more motile sperm in the X population and 6.5% more motile sperm in the Y population. Similarly, the yellow quenched dye provided 7% better progressive motility in the X population and 8% better progressive motility in the Y population.

The test system of data set [4] is membrane compromised sperm. The experiment in a line: Bivariate plots comparing dead quenching dyes (FIG. 3). Type of data set: cell-based. The settings on record: three bulls, equal amounts of Hoechst 33342 and of dye. The text has this: FIG. 3 illustrates comparisons of bivariate plots generated in sex sorting sperm which reflect the intensity of the excited DNA selective fluorescent dye during sorting. Three bulls were stained with equal amounts of Hoechst 33342 and with an equal amount of yellow food dye No. 6 and red food dye No. 40. The region labeled as R4 surrounds what is considered the “dead” sperm population, while the region R1 is centered on viable, oriented sperm. It can be seen that for each bull yellow food dye no.

The subject of data set [5] is sperm. The experiment in a line: Split quality, split enhancing dyes at various concentrations and incubation times (Example 10). Format: cell-based, bulls. The settings on record: 15, 45, 125 μM; 30-75 minutes; averaged over 8 bulls. As to the method: Eight bulls were collected, including 4 Jersey bulls, 3 Holstein bulls and one mixed dairy-breed. The ejaculates were collected at concentrations ranging from 1700×10^6 sperm/ml to 1100×10^6 sperm/ml and all had progressive motility of a least 60%.
Sperm from each bull was extended to 160 million per ml with a first buffer, (TALP described in table 1 at a pH 7.4) and stained with 64 μM (164/2 mL) Hoechst 33342 at 34° C. Additionally, Phenol Red, Red Food Dye No. 2, Red Food Dye No. 3, and Red Food Dye No. 4, were each tested as split enhancing dyes in the first buffer at concentrations of 15 μM, 45 μM and 125 μM. For each bull, each concentration of each dye was incubated for periods of 30 minutes, 45 minutes, 60 minutes, and 75 minutes were utilized before a second buffer with an additional dye was applied.
Each sample was then extended in an equal volume of a second buffer which comprised a 5.5 pH modified TALP having 25 μM yellow food dye No. 6 (acting as a dead quenching dye) in addition to the split enhancing dye provided in the first buffer. The second buffer was applied to every sample at 30 minutes, 45 minutes, 60 minutes, and 75 minutes. A control was additionally taken without any split enhancing dye for every bull at every time interval.
Sorting was performed on a MoFlo SX (Beckman Coulter, USA) in substantially the same manner described in Example 5. After calibration, screen shots of sorting histograms were taken and split quality was measured by peak to valley ratios in the same way described in Example 5 with reference to FIG. 4 and the resulting data, averaged over all 8 bulls, is found in Tables 18-21. Additionally, screen shots of bivariate plots were taken to measure the added dead quenching capacity of the mixed dead quenching and split enhancing dyes.

In data set [6] the test system is membrane compromised sperm. The experiment in a line: Dead gate intensity, yellow 5 and phenol red at higher concentrations (Example 6). The settings on record: Hoechst 12 μL/2 mL. Type of data set: cell-based, Jersey bull.

In the data set on sperm [1], `O=S(=O)([O-])c1ccc(N=Nc2c(O)ccc3cc(S(=O)(=O)[O-])ccc23)cc1.[Na+].[Na+]` [Yellow 6, Disodium 6-hydroxy-5[(4-sulfophenyl)azo]-2-naphthalenesulfononate] gave a Motile of 55.5 and a Progressive of 38.0. Further, in the data set with sperm [2] (post thaw 0 HR), the DNA fragmentation Post Sort stood at 0% and the DNA fragmentation Pre-sort is 2.3%. In the data set with sperm [2] (post thaw 24 HR), this molecule returned a DNA fragmentation Post Sort of 0% and a DNA fragmentation Pre-sort of 3.3%. In the data set on sperm [2] (post thaw 48 HR), this molecule had a DNA fragmentation Post Sort of 0.3% and a DNA fragmentation Pre-sort of 3.7%. In the data set with sperm [3] (X population), the “better progressive motility than red quenched” value was 7%, the “more motile sperm than red quenched” value is reported as “about 4.5%”, the Motile worked out at 24 and the Progressive worked out at 18.5. For the same molecule, in the data set on sperm [3] (Y population), the “better progressive motility than red quenched” value is recorded as 8%, the “more motile sperm than red quenched” value is ~6.5%, the Motile is listed as 25 and the Progressive was 21. In data set [4], the “quenching of the dead population compared to red food dye No. 40” value is “superior quenching”.
Regarding `COc1cc(S(=O)(=O)O)c(C)cc1N=Nc1c(O)ccc2cc(S(=O)(=O)O)ccc12` [Red 40, 6-hydroxy-5-[(2-methoxy-5-methyl-4-sulfophenyl)azo]-2-naphthalenesulfonic acid, reference compound], the Motile with sperm [1] is on record as 51.0. Further, the Progressive was determined as 29.0 in the data set on sperm [1] and 13 in the data set on sperm [3] (Y population). Also, the “post thaw DNA fragmentation compared to yellow food dye No. 6” value in the data set on sperm [2] was “about double”. For the same molecule, the DNA fragmentation Post Sort came to 0% in the data set with sperm [2] (elk, 0 h); 0.3% with sperm [2] (elk, 24 h); 0.7% in the data set with sperm [2] (elk, 48 h). Moreover, the DNA fragmentation Pre-sort in the data set with sperm [2] (elk, 0 h) is 2.3%; in the data set with sperm [2] (elk, 24 h), 5.6%; in the data set with sperm [2] (elk, 48 h) it was 6%.
As to `O=S1(=O)OC(c2ccc(O)cc2)(c2ccc(O)cc2)c2ccccc21` [Phenol Red, phenolsulfonphthalein], the “split enhancing effect compared to control” value with sperm [5] is “provided consistent split improvements at all concentrations after 30 minutes”. The Intensity worked out at 85% in data set [6] (dye 125 μM, pH 7.40); 76% in data set [6] (dye 250 μM, pH 7.40); 66% in data set [6] (dye 500 μM, pH 7.40); 56% in data set [6] (dye 750 μM, pH 7.40); 47% in data set [6] (dye 875 μM, pH 7.40); 43% in data set [6] (dye 1250 μM, second buffer pH 7.40).
